Reference: ChEMBL document CHEMBL3352575, “Synthesis, in vitro and in vivo antitumor activity of pyrazole-fused 23-hydroxybetulinic acid derivatives” (Bioorg Med Chem Lett, 2015)

Legend:
B16 [1] = assay: Antitumor activity against mouse B16 cells allografted in ICR mouse assessed as tumor growth inhibition at 30 mg/kg, ip administered 7 days post inoculation measured at day 25 of tumor transplantation; type: functional; settings: route intraperitoneal
H22 [2] = assay: Antitumor activity against […] H22 cells […] in ICR mouse assessed as tumor growth inhibition at 30 mg/kg, ip administered 7 days post inoculation measured at day 25 of tumor transplantation; type: functional; settings: route intraperitoneal
[3] = Antiproliferative activity against human Bel7402 cells after 72 hrs by MTT assay; type: functional, cell-based; settings: Bel-7402, 72 h
[4] = Antiproliferative activity against human SF763 cells after 72 hrs by MTT assay; type: functional, cell-based; settings: SF763, 72 h
[5] = Antiproliferative activity against human HL60 cells after 72 hrs by MTT assay; type: functional, cell-based; settings: HL-60, 72 h
HeLa = assay: Antiproliferative activity against human HeLa cells after 72 hrs by MTT assay; type: functional, cell-based
B16 [6] = assay: Antiproliferative activity against mouse B16 cells after 72 hrs by MTT assay; type: functional, cell-based; settings: B16, 72 h
H22 [7] = assay: Antitumor activity against human H22 cells xenografted in ICR mouse assessed as tumor growth inhibition at 30 mg/kg, iv administered 7 days post inoculation measured at day 25 of tumor transplantation; settings: read-out: INH
B16 [8] = assay: Antitumor activity against mouse B16 cells allografted in ICR mouse assessed as tumor growth inhibition at 30 mg/kg, iv administered 7 days post inoculation measured at day 25 of tumor transplantation; type: functional

C=C(C)[C@@H]1CC[C@]2(C(=O)O)CC[C@]3(C)[C@H](CC[C@@H]4[C@@]5(C)CC[C@H](O)[C@@](C)(CO)[C@@H]5CC[C@]43C)[C@@H]12
inhibition in vivo at 30 mg/kg (B16 [1]): 32.4%
inhibition in vivo at 30 mg/kg (H22 [2]): 27.8%

C=C(C)[C@@H]1CC[C@]2(C(=O)N3CCOCC3)CC[C@]3(C)[C@H](CC[C@@H]4[C@@]5(C)Cc6c[nH]nc6[C@@](C)(COC(C)=O)[C@@H]5CC[C@]43C)[C@@H]12
IC50 [3]: 10.2 µM
IC50 [4]: 8.45 µM
IC50 [5]: 9.85 µM
IC50 (HeLa): 10 µM
IC50 (B16 [6]): 7.89 µM

C=C(C)[C@@H]1CC[C@]2(C(=O)NCC(=O)OC)CC[C@]3(C)[C@H](CC[C@@H]4[C@@]5(C)Cc6c[nH]nc6[C@@](C)(COC(C)=O)[C@@H]5CC[C@]43C)[C@@H]12
IC50 [3]: 19.3 µM
IC50 [4]: 17.7 µM
IC50 [5]: 20.9 µM
IC50 (HeLa): 21.2 µM
IC50 (B16 [6]): 18.9 µM

C=C(C)[C@@H]1CC[C@]2(C(=O)OCCO)CC[C@]3(C)[C@H](CC[C@@H]4[C@@]5(C)Cc6cn(C(C)=O)nc6[C@@](C)(COC(C)=O)[C@@H]5CC[C@]43C)[C@@H]12
IC50 [3]: 34.4 µM
IC50 [4]: 32.1 µM
IC50 [5]: 43.2 µM
IC50 (HeLa): 40.1 µM
IC50 (B16 [6]): 33.8 µM

C=C(C)[C@@H]1CC[C@]2(C(=O)Oc3ccc(C#N)cc3)CC[C@]3(C)[C@H](CC[C@@H]4[C@@]5(C)Cc6cn(C(C)=O)nc6[C@@](C)(COC(C)=O)[C@@H]5CC[C@]43C)[C@@H]12
IC50 [3]: 18.1 µM
IC50 [4]: 23.4 µM
IC50 [5]: 31.3 µM
IC50 (HeLa): 28 µM
IC50 (B16 [6]): 22.5 µM

C=C(C)[C@@H]1CC[C@]2(C(=O)NCCN)CC[C@]3(C)[C@H](CC[C@@H]4[C@@]5(C)Cc6c[nH]nc6[C@@](C)(COC(C)=O)[C@@H]5CC[C@]43C)[C@@H]12
IC50 [3]: 8.12 µM
IC50 [4]: 6.13 µM
inhibition in vivo at 30 mg/kg (B16 [1]): 58.9%
IC50 [5]: 8.04 µM
IC50 (HeLa): 8.97 µM
IC50 (B16 [6]): 5.58 µM
inhibition in vivo at 30 mg/kg (H22 [2]): 51.2%

C=C(C)[C@@H]1CC[C@]2(C(=O)N3CCOCC3)CC[C@]3(C)[C@H](CC[C@@H]4[C@@]5(C)Cc6c[nH]nc6[C@@](C)(CO)[C@@H]5CC[C@]43C)[C@@H]12
IC50 [3]: 39.4 µM
IC50 [4]: 33.7 µM
IC50 [5]: 39 µM
IC50 (HeLa): 35.5 µM
IC50 (B16 [6]): 31.1 µM

C=C(C)[C@@H]1CC[C@]2(C(=O)NCC(=O)O)CC[C@]3(C)[C@H](CC[C@@H]4[C@@]5(C)Cc6c[nH]nc6[C@@](C)(CO)[C@@H]5CC[C@]43C)[C@@H]12
IC50 [3]: 36.1 µM
IC50 [4]: 27.4 µM
IC50 [5]: 34.9 µM
IC50 (HeLa): 32.7 µM
IC50 (B16 [6]): 30.8 µM

C=C(C)[C@@H]1CC[C@]2(C(=O)OCc3ccccc3)CC[C@]3(C)[C@H](CC[C@@H]4[C@@]5(C)Cc6cn(CC)nc6[C@@](C)(CO)[C@@H]5CC[C@]43C)[C@@H]12
IC50 [3]: 45.8 µM
IC50 [4]: 39.6 µM
IC50 [5]: 40.1 µM
IC50 (HeLa): 40 µM
IC50 (B16 [6]): 38.2 µM

C=CCn1cc2c(n1)[C@@](C)(CO)[C@@H]1CC[C@]3(C)[C@H](CC[C@@H]4[C@H]5[C@H](C(=C)C)CC[C@]5(C(=O)OCc5ccccc5)CC[C@]43C)[C@@]1(C)C2
IC50 [3]: 29.6 µM
IC50 [4]: 21.1 µM
IC50 [5]: 31.1 µM
IC50 (HeLa): 26.4 µM
IC50 (B16 [6]): 20.1 µM

C=C(C)[C@@H]1CC[C@]2(C(=O)OCc3ccccc3)CC[C@]3(C)[C@H](CC[C@@H]4[C@@]5(C)Cc6cn(CC(=O)OCC)nc6[C@@](C)(CO)[C@@H]5CC[C@]43C)[C@@H]12
IC50 [3]: 43 µM
IC50 [4]: 33 µM
IC50 [5]: 39.1 µM
IC50 (HeLa): 37 µM
IC50 (B16 [6]): 32.9 µM

C=C(C)[C@@H]1CC[C@]2(C(=O)O)CC[C@]3(C)[C@H](CC[C@@H]4[C@@]5(C)Cc6cn(CC)nc6[C@@](C)(CO)[C@@H]5CC[C@]43C)[C@@H]12
IC50 [3]: 50.3 µM
IC50 [4]: 44.1 µM
IC50 [5]: 47 µM
IC50 (HeLa): 58.8 µM
IC50 (B16 [6]): 42.4 µM

C=C(C)[C@@H]1CC[C@]2(C(=O)O)CC[C@]3(C)[C@H](CC[C@@H]4[C@@]5(C)Cc6cn(CCC)nc6[C@@](C)(CO)[C@@H]5CC[C@]43C)[C@@H]12
IC50 [3]: 48 µM
IC50 [4]: 41 µM
IC50 [5]: 45.8 µM
IC50 (HeLa): 54.1 µM
IC50 (B16 [6]): 44.3 µM

C=C(C)[C@@H]1CC[C@]2(C(=O)O)CC[C@]3(C)[C@H](CC[C@@H]4[C@@]5(C)Cc6cn(CC(=O)OCC)nc6[C@@](C)(CO)[C@@H]5CC[C@]43C)[C@@H]12
IC50 [3]: 40.6 µM
IC50 [4]: 35.9 µM
IC50 [5]: 49.8 µM
IC50 (HeLa): 47.2 µM
IC50 (B16 [6]): 29.4 µM

C=C(C)[C@@H]1CC[C@]2(C(=O)O)CC[C@]3(C)[C@H](CC[C@@H]4[C@@]5(C)Cc6cn(CC(=O)O)nc6[C@@](C)(CO)[C@@H]5CC[C@]43C)[C@@H]12
IC50 [3]: 50.2 µM
IC50 [4]: 30.2 µM
IC50 [5]: 46.3 µM
IC50 (HeLa): 59.9 µM
IC50 (B16 [6]): 39.7 µM

C=C(C)[C@@H]1CC[C@]2(C(=O)OCC)CC[C@]3(C)[C@H](CC[C@@H]4[C@@]5(C)Cc6cn(CC)nc6[C@@](C)(COC(C)=O)[C@@H]5CC[C@]43C)[C@@H]12
IC50 [3]: 30.2 µM
IC50 [4]: 19.4 µM
IC50 [5]: 28.1 µM
IC50 (HeLa): 24.2 µM
IC50 (B16 [6]): 19.4 µM

C=CCOC(=O)[C@]12CC[C@@H](C(=C)C)[C@@H]1[C@H]1CC[C@@H]3[C@@]4(C)Cc5cn(CC=C)nc5[C@@](C)(COC(C)=O)[C@@H]4CC[C@@]3(C)[C@]1(C)CC2
IC50 [3]: 33.5 µM
IC50 [4]: 22 µM
IC50 [5]: 30.8 µM
IC50 (HeLa): 27.3 µM
IC50 (B16 [6]): 20.1 µM

C=C(C)[C@@H]1CC[C@]2(C(=O)OCC(=O)OCC)CC[C@]3(C)[C@H](CC[C@@H]4[C@@]5(C)Cc6cn(CC(=O)OCC)nc6[C@@](C)(COC(C)=O)[C@@H]5CC[C@]43C)[C@@H]12
IC50 [3]: 39.2 µM
IC50 [4]: 34 µM
IC50 [5]: 35.1 µM
IC50 (HeLa): 38.2 µM
IC50 (B16 [6]): 29.3 µM

C=CCOC(=O)[C@]12CC[C@@H](C(=C)C)[C@@H]1[C@H]1CC[C@@H]3[C@@]4(C)Cc5cn(CC=C)nc5[C@@](C)(CO)[C@@H]4CC[C@@]3(C)[C@]1(C)CC2
IC50 [3]: 38.8 µM
IC50 [4]: 25.3 µM
IC50 [5]: 33.4 µM
IC50 (HeLa): 32.1 µM
IC50 (B16 [6]): 24.9 µM

C=C(C)[C@@H]1CC[C@]2(C(=O)OCC(=O)O)CC[C@]3(C)[C@H](CC[C@@H]4[C@@]5(C)Cc6cn(CC(=O)O)nc6[C@@](C)(CO)[C@@H]5CC[C@]43C)[C@@H]12
IC50 [3]: 47.6 µM
IC50 [4]: 41.8 µM
IC50 [5]: 44.8 µM
IC50 (HeLa): 50 µM
IC50 (B16 [6]): 36 µM

O=P1(N(CCCl)CCCl)NCCCO1 (stereo unspecified) [CYCLOPHOSPHAMIDE ANHYDROUS]
inhibition in vivo at 30 mg/kg (H22 [7]): 53.7%

O=c1[nH]cc(F)c(=O)[nH]1 [FLUOROURACIL]
IC50 [3]: 11.8 µM
IC50 [4]: 9.34 µM
IC50 [5]: 10.5 µM
IC50 (HeLa): 9.09 µM
IC50 (B16 [6]): 10.5 µM
inhibition in vivo at 30 mg/kg (B16 [8]): 70.3%
